Where a name gives a salt, the structure may show the parent alone.
Legend:
[1] = system: barnyardgrass (Echinochloa crus-galli); assay: Example 4: herbicidal activity, soil treatment, weed sown 9 days after treatment; format: in vivo; settings: score 0 to 100; 1,000 g/ha; 29 days after the chemical treatment (20 days after sowing)
Experimental: (§1) Plastic pots each having a diameter of 24 cm and a height of 21 cm were filled with the soil. A water dilution of a glyphosate potassium salt (liquid formulation containing 48% of a glyphosate potassium salt, manufactured by Nissan Chemical Industries, Ltd. under the trade name of Roundup Maxload) was prepared. A mixed solution of a water dilution of a flumioxazin water dispersible granule (water dispersible granule containing 51% of flumioxazin, manufactured by Valent USA Corporation under the trade name of Valor SX) and a water dilution of a saflufenacil was prepared. A mixed solution of a water dilution of a glyphosate potassium salt, a water dilution of a flumioxazin water dispersible granule and a water dilution of Saflufenacil was prepared. Each of the solutions thus prepared above was uniformly sprayed over the pots using a sprayer in an amount of 500 L/ha. The water dilution of saflufenacil was prepared by dissolving a predetermined amount of saflufenacil in acetone containing 2% (w/v) of Tween 20 (surfactant, manufactured by Tokyo Chemical Industry Co., Ltd.) and diluting the solution with water so that the acetone concentration will be 10 volume %.
(§2) After a chemical treatment, the pots were put in a greenhouse. […]
Seedlings of the plant were cultivated in the greenhouse and, 29 days after the chemical treatment (20 days after sowing), herbicidal activity was evaluated.

[2] = system: ivyleaf morningglory (Ipomoea hederacea); assay: Example 3: herbicidal activity, soil treatment, weed sown 21 days after treatment; format: in vivo; settings: score 0 to 100; 20 g/ha; 45 days after the chemical treatment (24 days after sowing)
Experimental: as §1, with “of saflufenacil” for “of a glyphosate potassium salt (liquid formulation containing 48% of a glyphosate potassium salt, manufactured by Nissan Chemical Industries, Ltd. under the trade name of Roundup Maxload)”, “a glyphosate potassium salt (liquid formulation containing 48% of a glyphosate potassium salt, manufactured by Nissan Chemical Industries, Ltd. under the trade name of Roundup Maxload)” for “a saflufenacil”, “of saflufenacil,” for “of a glyphosate potassium salt,”, “of a glyphosate potassium salt” for “of Saflufenacil”
as §2
Seedling of the plant were cultivated in the greenhouse and, […] after the chemical treatment (24 days after sowing), herbicidal activity was evaluated.

SMILES | Herbicidal activity Barnyardgrass [1] | Herbicidal activity Ivyleaf morningglory [2]
O=C(O)CNCP(=O)(O)O [Glyphosate potassium salt, glyphosate-potassium] | 0 | –
CC(C)N(C)S(=O)(=O)NC(=O)c1cc(-n2c(=O)cc(C(F)(F)F)n(C)c2=O)c(F)cc1Cl [Saflufenacil, N′-{2-chloro-4-fluoro-5-[1,2,3,6-tetrahydro-3-methyl-2,6-dioxo-4-(trifluoromethyl)pyrimidin-1-yl]benzoyl}-N-isopropyl-N-methylsulfamide] | – | 45
